Series [1] addresses T1, General amino-acid permease GAP1 (Saccharomyces cerevisiae) (UniProt P19145).
T1 sequence (whole entry): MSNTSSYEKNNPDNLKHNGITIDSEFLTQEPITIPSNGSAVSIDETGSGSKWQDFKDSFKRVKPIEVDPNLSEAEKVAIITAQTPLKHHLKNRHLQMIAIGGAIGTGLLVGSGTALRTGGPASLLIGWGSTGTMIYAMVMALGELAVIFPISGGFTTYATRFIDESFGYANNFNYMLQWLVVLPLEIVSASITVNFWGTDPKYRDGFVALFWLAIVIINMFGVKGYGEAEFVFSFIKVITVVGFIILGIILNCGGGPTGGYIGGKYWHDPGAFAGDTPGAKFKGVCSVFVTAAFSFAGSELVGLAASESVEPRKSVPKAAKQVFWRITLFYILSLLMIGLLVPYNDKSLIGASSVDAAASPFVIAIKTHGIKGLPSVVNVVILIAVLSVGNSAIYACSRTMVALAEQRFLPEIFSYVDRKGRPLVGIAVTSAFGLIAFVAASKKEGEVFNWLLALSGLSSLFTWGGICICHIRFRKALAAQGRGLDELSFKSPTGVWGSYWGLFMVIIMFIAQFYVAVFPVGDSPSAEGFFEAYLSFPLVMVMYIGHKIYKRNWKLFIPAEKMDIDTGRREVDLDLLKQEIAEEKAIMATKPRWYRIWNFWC
The series can be described thus: Noncompetitive inhibition of nitrogen-starved wild type sigma1278b yeast Gap1-mediated amino acid uptake at 5 mM after 60 secs relative to L-citrulline.

The target of series [2] is T1, General amino-acid permease GAP1 (Saccharomyces cerevisiae). The series can be described thus: Induction of nitrogen-starved wild type sigma1278b yeast Gap1-mediated […] activation at 10 mM.
Series [3] shares this target. The series can be described thus: Competitive inhibition of nitrogen-starved wild type sigma1278b yeast Gap1-mediated amino acid uptake at 5 mM after 60 secs relative to L-citrulline.
Series [4] has the same target. The series can be described thus: Induction of nitrogen-starved wild type sigma1278b yeast Gap1-mediated amino acid uptake at 5 mM after 90 mins.
For series [5] the target is unchanged. The series is described as follows: Induction of nitrogen-starved wild type sigma1278b yeast Gap1-mediated […] activation at 5 mM.
Series [6] has the same target. The series is described as follows: Induction of nitrogen-starved wild type sigma1278b yeast Gap1-mediated […] activation at 5 mM in presence of 10 mM MTSEA treated before compound addition.
Series [7] concerns the target T2, General amino-acid permease GAP1 (Saccharomyces cerevisiae, UniProt P19145).
T2 sequence (P19145 whole entry): T1 sequence (whole entry)
The series is described as follows: Competitive inhibition of nitrogen-starved wild type sigma1278b yeast Gap1 by Lineweaver-Burke plot analysis.

Series [8] deals with T1, General amino-acid permease GAP1 (Saccharomyces cerevisiae). The series can be described thus: Inhibition of nitrogen-starved wild type sigma1278b yeast Gap1 assessed as reduction of L-citrulline-mediated trehalose activation at 5 to 10 mM.
For series [9] the target is unchanged. The series can be described thus: Inhibition of L-Arg-L-Gly-L-Gly-induced nitrogen-starved wild type sigma1278b yeast Gap1.
Series [10] addresses T2, General amino-acid permease GAP1. The series can be described thus: Noncompetitive inhibition of nitrogen-starved wild type sigma1278b Gap1-mediated amino acid transport by Lineweaver-Burke plot analysis.
Series [11] addresses T1, General amino-acid permease GAP1 (Saccharomyces cerevisiae). The settings on record: sigma1278b, at 5 mM.
Substrate in series [12]: NC(=O)NCCC[C@H](N)C(=O)O
The series is described as follows: Activity at nitrogen-starved wild type sigma1278b Gap1. The conditions noted are these: Saccharomyces cerevisiae.

Active and inactive are the calls of the source. The calls are words filed in the database; no cut-off is given here. Non-standard residues stand in square brackets, D forms with d. Residues, ends and D or L forms follow the SMILES beside them. *: point of attachment. βNA = c1ccc2cc(N*)ccc2c1; Bz = O=C(c1ccccc1)*; βAla = NCCC(=O)O A value given as a limit tells only on which side of the number the result lay.

As for `CC(C)C[C@H](NC(=O)[C@H](C)N)C(=O)O` (H-Ala-Leu-OH), the inhibition in series [1] was greater than 30%. As to `O=C(O)[C@@H]1CCCN1`, the outcome in series [2] was Active. In the case of `NCCCC[C@H](N)C(=O)O`, the outcome in series [2] was inactive. For `CC(C)C[C@H](N)C(=O)NCC(=O)O` (H-Leu-Gly-OH), the inhibition in [3] is greater than 30%. In addition, the outcome in [4] and in [6] was inactive. Besides, the outcome in [5] was Active. Besides, in series [7], the Ki turned out to be 190 µM. As to `CC(C)[C@H](NC(=O)CNC(=O)[C@H](C)N)C(=O)O` (H-Ala-Gly-Val-OH), in series [1], the inhibition is greater than 30%. Molecule `N[C@@H](CC(=O)O)C(=O)N[C@@H](Cc1ccccc1)C(=O)O` (H-Asp-Phe-OH) yielded an inhibition in [3] greater than 30%. Regarding `N=C(N)NCCC[C@H](N)C(=O)NCC(=O)NCC(=O)O` (H-Arg-Gly-Gly-OH), in series [1], the inhibition is greater than 30%. Turning to `C[C@@H](O)[C@H](N)C(=O)O`, in series [2], the result was Active. Take `N[C@@H](CC(=O)N[C@@H](CCC(=O)O)c1ccccc1)C(=O)O`: the result in series [4] was inactive. Also, the inhibition result in series [8] was “Active”. The inhibition entry in series [9] is “inactive”. This molecule displayed a Ki in [7] of 105 µM. In the case of `CC(N)C(=O)NC(Cc1ccccc1)C(=O)O` (racemic), the inhibition in [1] was greater than 30%. For `N[C@@H](CCC(=O)O)C(=O)O`, in series [2], the result was Active. In series [1], `CC(C)C[C@H](NC(=O)[C@H](CC(C)C)NC(=O)[C@@H](N)CC(C)C)C(=O)O` (H-Leu-Leu-Leu-OH) had an inhibition of 15%.

Consider `C[C@H](NC(=O)[C@H](Cc1ccccc1)NC(=O)[C@@H](N)CCCNC(=N)N)C(=O)O` (H-Arg-Phe-Ala-OH), for which, in [1], the inhibition is greater than 30%. In turn, `N=C(N)NCCC[C@H](N)C(=O)N[C@@H](Cc1ccccc1)C(=O)N[C@@H](Cc1ccccc1)C(=O)O` (H-Arg-Phe-Phe-OH) returned an inhibition in series [1] greater than 30%. The inhibition constant (Ki) in series [10] came out at 12000 µM. Moreover, the outcome in [2] was Active. Turning to `N[C@@H](Cc1c[nH]cn1)C(=O)O`, in series [2], the outcome was inactive. `N=C(N)NCCC[C@H](NC(=O)[C@@H](N)CCCNC(=N)N)C(=O)Nc1ccc2ccccc2c1` (H-Arg-Arg-βNA) registered an inhibition in series [1] greater than 30%. Same read-out and setting: next, `CC(C)C[C@H](N)C(=O)N[C@H](CC(C)C)C(=O)O`: greater than 30%. For the molecule `N[C@@H](Cc1c[nH]c2ccccc12)C(=O)O`, in [2], the result was inactive.

On to `N[C@@H](Cc1ccccc1)C(=O)O`, for which, in series [2], the outcome was Active. In turn, `CC(C)C[C@H](NC(=O)[C@@H](NC(=O)[C@@H](N)CC(C)C)C(C)C)C(=O)O` (H-Leu-Val-Leu-OH) showed an inhibition in series [1] of 15%. For `NC(N)=NCCC[C@H](N)C(=O)NCC(=O)O` (H-Arg-Gly-OH), in series [1], the inhibition was greater than 30%.

In the case of `N[C@@H](CO)C(=O)O`, in series [2], the result was Active. In series [1], `C[C@H](N)C(=O)NCC(=O)N[C@@H](C)C(=O)O` (H-Ala-Gly-Ala-OH) displayed an inhibition greater than 30%. `CC(C)C[C@H](NC(=O)CCCCN)C(=O)O`: the inhibition in [1] was greater than 30%. `CC(C)C[C@H](NC(=O)[C@@H](N)CC(C)C)C(=O)N[C@@H](C)C(=O)O` (H-Leu-Leu-Ala-OH) registered an inhibition in series [1] of 15%. On the same count and under the same terms, next, `CSCC[C@H](NC(=O)[C@@H](N)CC(C)C)C(=O)O` (H-Leu-Met-OH): 15%. Turning to `N[C@@H](CC(=O)O)C(=O)O`, in series [2], the outcome was Active. As to `CSCC[C@H](NC(=O)[C@@H](N)CC(C)C)C(N)=O` (H-Leu-Met-NH2), the inhibition in [1] is greater than 30%. This molecule also came in with a Ki in series [10] of 5000 µM. Moreover, the outcome in series [2] was inactive. As for `CC(C)C[C@H](NC(=O)[C@H](CC(C)C)NC(=O)CCN)C(=O)O` (H-[βAla]-Leu-Leu-OH), the inhibition in [1] came to 15%. Take `CC(C)(C)OC(=O)N[C@@H](CCC(=O)O)C(=O)O`: the inhibition in [11] was less than 15%.

Turning to `CC(C)CC(NC(=O)C(C)N)C(=O)O` (racemic), in [11], the inhibition was determined as 15%. Consider `O=C(O)CNC(=O)CNC(=O)c1ccccc1` (Bz-Gly-Gly-OH), for which the inhibition in [11] was less than 15%. Molecule `CC(C)C(NC(=O)CN)C(=O)O` (racemic) returned an inhibition in [11] of less than 15%.

`COC(=O)[C@@H](N)Cc1c[nH]c2ccccc12`: the inhibition in [11] is less than 15%. For `CSCC[C@H](NC(=O)[C@@H](N)CCSC)C(=O)N[C@@H](C)C(=O)O` (H-Met-Met-Ala-OH), the inhibition in [11] was less than 15%.

B1: General amino-acid permease GAP1 (Saccharomyces cerevisiae), P19145 (protein)
chain: T1 sequence (whole entry)
Turning to B1, the Km in series [12] was 37 µM.

Broadly, the inhibition is how much of the control response was suppressed. By Ki is commonly meant the equilibrium dissociation constant of an inhibitor or competing ligand from its target. One may read the Km as the concentration of substrate that gives half-maximal velocity.
